Measurements reported in ChEMBL document CHEMBL1201862, “PubChem BioAssay data set” (2004).
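Interpolation was linear, between the two tested concentrations surrounding the appropriate level; five concentrations were tested over 48 hours in 96-well plates. GI50: concentration for 50% inhibition of growth.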 The source made the active and inactive calls. Rule as the data show it: active = GI50 up to about 1.1 µM and inactive = higher.

Columns and labels:
Test in all cases: DTP human tumour cell line panel, 48 h
T47D = system: T47D
SF-539 = system: SF-539
DU-145 = system: DU-145
OVCAR-5 = system: OVCAR-5
A549 = system: A549
SNB-75 = system: SNB-75
HCT-15 = system: HCT-15
NCI-H460 = system: NCI-H460
HOP-92 = system: HOP-92
HCC 2998 = system: HCC 2998
NCI-H226 = system: NCI-H226
SF-268 = system: SF-268
SK-MEL-5 = system: SK-MEL-5
MDA-MB-435 = system: MDA-MB-435
EKVX = system: EKVX
RXF 393 = system: RXF 393
COLO 205 = system: COLO 205
TK-10 = system: TK-10
NCI-H23 = system: NCI-H23
LOX IMVI = system: LOX IMVI
OVCAR-4 = system: OVCAR-4
OVCAR-8 = system: OVCAR-8
SW-620 = system: SW-620
Malme-3M = system: Malme-3M
HL-60 = system: HL-60
M14 = system: M14
OVCAR-3 = system: OVCAR-3
SK-OV-3 = system: SK-OV-3
MCF7 = system: MCF7
A498 = system: A498
SF-295 = system: SF-295
NCI-H522 = system: NCI-H522
SNB-19 = system: SNB-19
Hs-578T = system: Hs-578T
SK-MEL-2 = system: SK-MEL-2
CAKI-1 = system: CAKI-1
NCI/ADR-RES = system: NCI/ADR-RES
PC-3 = system: PC-3
SK-MEL-28 = system: SK-MEL-28
786-0 = system: 786-0
KM12 = system: KM12
HT-29 = system: HT-29
SN12C = system: SN12C
UO-31 = system: UO-31
UACC-257 = system: UACC-257
HOP-62 = system: HOP-62
MDA-MB-231 = system: MDA-MB-231
IGROV-1 = system: IGROV-1
HCT-116 = system: HCT-116
MOLT-4 = system: MOLT-4
MDA-N = system: MDA-N
U-251 = system: U-251
ACHN = system: ACHN

Question: Which GI50 (T47D) does the source give for `O=C1C(Cl)=C(N2CCN(CCOCCO)CC2)C(=O)c2c(O)ccc(O)c21` here?
Answer: The GI50 was 264 nM (active).

Question: What about the GI50 (SF-539) of the same compound?
Answer: The GI50 was 1750 nM (inactive).

Question: And the GI50 (DU-145)?
Answer: Its GI50 is 1820 nM (inactive).

Question: And the GI50 (OVCAR-5)?
Answer: The GI50 was 1870 nM (inactive).

Question: And the GI50 (A549)?
Answer: The GI50 was 2010 nM (inactive).

Question: And the GI50 (SNB-75)?
Answer: The GI50 was 1600 nM (inactive).

Question: What about the GI50 (HCT-15) of the same compound?
Answer: The GI50 was 227 nM.

Question: What about the GI50 (NCI-H460) of the same compound?
Answer: Its GI50 is 1980 nM (inactive).

Question: And the GI50 (HOP-92)?
Answer: The GI50 was 237 nM (active).

Question: What about the GI50 (HCC 2998) of the same compound?
Answer: Its GI50 is 1830 nM (inactive).

Question: What about the GI50 (NCI-H226) of the same compound?
Answer: Its GI50 is 1890 nM (inactive).

Question: For `c1ccc2c(Nc3ccc(Oc4ccc(Nc5c6ccccc6nc6ccccc56)cc4)cc3)c3ccccc3nc2c1`, which GI50 (SF-268) is on record?
Answer: Its GI50 is 1570 nM (inactive).

Question: And the GI50 (SK-MEL-5)?
Answer: The GI50 was 1570 nM (inactive).

Question: What about the GI50 (MDA-MB-435) of the same compound?
Answer: The GI50 was 64.7 nM (active).

Question: What about the GI50 (EKVX) of the same compound?
Answer: The GI50 was 1500 nM (inactive).

Question: What about the GI50 (RXF 393) of the same compound?
Answer: The GI50 was 2400 nM (inactive).

Question: And the GI50 (COLO 205)?
Answer: The GI50 was 815 nM (active).

Question: And the GI50 (TK-10)?
Answer: Its GI50 is 1190 nM (inactive).

Question: And the GI50 (NCI-H23)?
Answer: Its GI50 is 181 nM (active).

Question: What about the GI50 (T47D) of the same compound?
Answer: The GI50 was 556 nM (active).

Question: And the GI50 (LOX IMVI)?
Answer: Its GI50 is 792 nM (active).

Question: What about the GI50 (OVCAR-4) of the same compound?
Answer: Its GI50 is 66.8 nM (active).

Question: What about the GI50 (OVCAR-8) of the same compound?
Answer: Its GI50 is 139 nM (active).

Question: And the GI50 (SW-620)?
Answer: Its GI50 is 64.9 nM (active).

Question: And the GI50 (DU-145)?
Answer: Its GI50 is 277 nM (active).

Question: And the GI50 (Malme-3M)?
Answer: Its GI50 is 1730 nM (inactive).

Question: And the GI50 (OVCAR-5)?
Answer: The GI50 was 528 nM (active).

Question: What about the GI50 (HL-60) of the same compound?
Answer: The GI50 was 547 nM (active).

Question: What about the GI50 (M14) of the same compound?
Answer: The GI50 was 92.5 nM (active).

Question: What about the GI50 (SNB-75) of the same compound?
Answer: The GI50 was 436 nM (active).

Question: And the GI50 (OVCAR-3)?
Answer: Its GI50 is 65.9 nM (active).

Question: And the GI50 (SK-OV-3)?
Answer: Its GI50 is 1720 nM (inactive).

Question: What about the GI50 (NCI-H460) of the same compound?
Answer: The GI50 was 618 nM (active).

Question: And the GI50 (MCF7)?
Answer: The GI50 was 94.2 nM (active).

Question: What about the GI50 (A498) of the same compound?
Answer: Its GI50 is 1850 nM (inactive).

Question: What about the GI50 (SF-295) of the same compound?
Answer: Its GI50 is 1670 nM (inactive).

Question: What about the GI50 (NCI-H522) of the same compound?
Answer: The GI50 was 665 nM (active).

Question: And the GI50 (HOP-92)?
Answer: The GI50 was 1830 nM (inactive).

Question: And the GI50 (HCC 2998)?
Answer: Its GI50 is < 10 nM (active).

Question: And the GI50 (NCI-H226)?
Answer: Its GI50 is 1720 nM (inactive).

Question: And the GI50 (SNB-19)?
Answer: Its GI50 is 299 nM (active).

Question: And the GI50 (Hs-578T)?
Answer: The GI50 was 2210 nM (inactive).

Question: What about the GI50 (SK-MEL-2) of the same compound?
Answer: The GI50 was 1960 nM (inactive).

Question: What about the GI50 (CAKI-1) of the same compound?
Answer: Its GI50 is 1630 nM (inactive).

Question: What about the GI50 (NCI/ADR-RES) of the same compound?
Answer: The GI50 was 65.5 nM (active).

Question: What about the GI50 (PC-3) of the same compound?
Answer: Its GI50 is 1600 nM (inactive).

Question: And the GI50 (SK-MEL-28)?
Answer: The GI50 was 102 nM (active).

Question: And the GI50 (786-0)?
Answer: The GI50 was 50.4 nM (active).

Question: For `N#CCc1nc(O)c2ccccc2n1`, which GI50 (KM12) is on record?
Answer: Its GI50 is > 100000 nM (inactive).

Question: And the GI50 (SK-MEL-5)?
Answer: The GI50 was > 100000 nM (inactive).

Question: And the GI50 (MDA-MB-435)?
Answer: The GI50 was > 100000 nM (inactive).

Question: What about the GI50 (EKVX) of the same compound?
Answer: Its GI50 is > 100000 nM (inactive).

Question: And the GI50 (HT-29)?
Answer: Its GI50 is > 100000 nM (inactive).

Question: What about the GI50 (COLO 205) of the same compound?
Answer: Its GI50 is 98900 nM (inactive).

Question: What about the GI50 (TK-10) of the same compound?
Answer: Its GI50 is > 100000 nM (inactive).

Question: What about the GI50 (SN12C) of the same compound?
Answer: The GI50 was > 100000 nM (inactive).

Question: And the GI50 (NCI-H23)?
Answer: Its GI50 is > 100000 nM (inactive).

Question: What about the GI50 (UO-31) of the same compound?
Answer: The GI50 was > 100000 nM (inactive).

Question: And the GI50 (T47D)?
Answer: Its GI50 is 50600 nM (inactive).

Question: And the GI50 (LOX IMVI)?
Answer: Its GI50 is 56400 nM (inactive).

Question: And the GI50 (UACC-257)?
Answer: Its GI50 is > 100000 nM (inactive).

Question: And the GI50 (OVCAR-4)?
Answer: The GI50 was > 100000 nM (inactive).

Question: And the GI50 (HOP-62)?
Answer: The GI50 was > 100000 nM (inactive).

Question: What about the GI50 (OVCAR-8) of the same compound?
Answer: The GI50 was > 100000 nM (inactive).

Question: And the GI50 (SW-620)?
Answer: The GI50 was > 100000 nM (inactive).

Question: What about the GI50 (SF-539) of the same compound?
Answer: The GI50 was > 100000 nM (inactive).

Question: What about the GI50 (MDA-MB-231) of the same compound?
Answer: The GI50 was > 100000 nM (inactive).

Question: And the GI50 (DU-145)?
Answer: Its GI50 is > 100000 nM (inactive).

Question: And the GI50 (IGROV-1)?
Answer: Its GI50 is > 100000 nM (inactive).

Question: And the GI50 (OVCAR-5)?
Answer: The GI50 was > 100000 nM (inactive).

Question: What about the GI50 (HL-60) of the same compound?
Answer: Its GI50 is 28300 nM (inactive).

Question: And the GI50 (M14)?
Answer: The GI50 was > 100000 nM (inactive).

Question: What about the GI50 (HCT-116) of the same compound?
Answer: The GI50 was > 100000 nM (inactive).

Question: What about the GI50 (MOLT-4) of the same compound?
Answer: Its GI50 is 39700 nM (inactive).

Question: What about the GI50 (A549) of the same compound?
Answer: Its GI50 is > 100000 nM (inactive).

Question: And the GI50 (SNB-75)?
Answer: The GI50 was > 100000 nM (inactive).

Question: What about the GI50 (OVCAR-3) of the same compound?
Answer: The GI50 was 69700 nM (inactive).

Question: What about the GI50 (MDA-N) of the same compound?
Answer: The GI50 was > 100000 nM (inactive).

Question: What about the GI50 (HCT-15) of the same compound?
Answer: The GI50 was 48000 nM.

Question: What about the GI50 (SK-OV-3) of the same compound?
Answer: Its GI50 is > 100000 nM (inactive).

Question: And the GI50 (NCI-H460)?
Answer: Its GI50 is > 100000 nM (inactive).

Question: And the GI50 (MCF7)?
Answer: The GI50 was 28100 nM (inactive).

Question: What about the GI50 (SF-295) of the same compound?
Answer: Its GI50 is > 100000 nM (inactive).

Question: What about the GI50 (HOP-92) of the same compound?
Answer: Its GI50 is > 100000 nM (inactive).

Question: What about the GI50 (HCC 2998) of the same compound?
Answer: Its GI50 is > 100000 nM (inactive).

Question: What about the GI50 (NCI-H226) of the same compound?
Answer: Its GI50 is > 100000 nM (inactive).

Question: And the GI50 (SNB-19)?
Answer: Its GI50 is > 100000 nM (inactive).

Question: And the GI50 (SK-MEL-2)?
Answer: Its GI50 is > 100000 nM (inactive).

Question: And the GI50 (CAKI-1)?
Answer: Its GI50 is > 100000 nM (inactive).

Question: What about the GI50 (U-251) of the same compound?
Answer: The GI50 was > 100000 nM (inactive).

Question: What about the GI50 (NCI/ADR-RES) of the same compound?
Answer: Its GI50 is > 100000 nM (inactive).

Question: And the GI50 (ACHN)?
Answer: The GI50 was > 100000 nM (inactive).

Question: And the GI50 (PC-3)?
Answer: The GI50 was > 100000 nM (inactive).

Question: What about the GI50 (SK-MEL-28) of the same compound?
Answer: Its GI50 is > 100000 nM (inactive).

Question: And the GI50 (786-0)?
Answer: Its GI50 is > 100000 nM (inactive).
